{
  "source": "patent US20240206484A1",
  "about": "“METHOD OF DEVELOPMENT OF SELECTIVE PROBIOTIC GROWTH PROMOTORS AND SELECTIVE PATHOGEN GROWTH INHIBITORS FROM KIMCHI FERMENTATION” (Hannip Inc., priority 2022, published 2024)",
  "key": {"[1]": {"tested_on": "L. plantarum", "test": "Impact of lactic acid on the effect of BKE-X1 or BKE-X2 on growth, colonies counted", "assay_type": "cell-based, Lactobacillus plantarum", "conditions": "lactic acid to reduce pH to 3 or less; 48 hours at 30° C.; vs control", "experimental": "(§1) To MRS culture medium (1 mL) in a culture tube (15 mL), saline (9 mL), BKE-X1 or BKE-X2 (500 mg), and kimchi bacteria culture solution (select one of L. mesenteroides and L. plantarum) (0.5 mL) were added. The mixture was vortex stirred and cultured for 48 hours at 30° C. To MRS culture medium (1 mL) in another culture tube (15 mL), saline (9 mL), BKE-X1 or BKE-X2 (500 mg), kimchi bacteria culture solution (select one of L. mesenteroides and L. plantarum) (0.5 mL), and lactic acid (to reduce pH to 3 or less) were added. The mixture was vortex stirred and cultured for 48 hours at 30° C. To MRS culture medium (1 mL) in yet another culture tube (15 mL), saline (9 mL), kimchi bacteria culture solution (select one of L. mesenteroides and L. plantarum) (0.5 mL), and lactic acid (to reduce pH to 3 or less) were added. The mixture was vortex stirred and cultured for 48 hours at 30° C. As the control, to MRS culture medium (1 mL) in yet another culture tube (15 mL), saline (9 mL) and kimchi bacteria culture solution (select one of L. mesenteroides and L. plantarum) (0.5 mL) were added. The mixture was vortex stirred and cultured for 48 hours at 30° C. An aliquot (0.5 mL) was collected from each culture medium and serially diluted to 16,000× using saline solution. […] The colonies were counted and photographed, then compared side by side."}, "[2]": {"tested_on": "L. mesenteroides", "test": "Impact of lactic acid on the effect of BKE-X1 or BKE-X2 on growth, colonies counted", "assay_type": "cell-based, Leuconostoc mesenteroides", "conditions": "lactic acid to reduce pH to 3 or less; 48 hours at 30° C.; vs control", "experimental": "as §1"}},
  "data": [
    {"compound": "CC(O)C(=O)O", "note": "(centres unmarked) [lactic acid]", "values": [
      {"measurement": "growth of L. plantarum, lactic acid alone", "setting": "[1]", "value": "negligibly promoting"},
      {"measurement": "growth of L. mesenteroides, lactic acid alone", "setting": "[2]", "value": "negligibly inhibit"}
    ]}
  ]
}
